Earlier results in patent US20170368087A1, “PHARMACEUTICAL COMPOSITION COMPRISING TOPIRAMATE” (INNOVACO PHARMACEUTICALS, INC., priority 2014, published 2017).

In the case of `CC1(C)O[C@@H]2[C@@H](CO[C@@]3(COS(N)(=O)=O)OC(C)(C)O[C@@H]23)O1` [Topiramate, 2,3:4,5-Di-O-isopropylidene-β-D-fructo-pyranose sulfamate], the “solubility in acetone, dimethyl sulfoxide, ethanol, and alkaline solutions containing sodium hydroxide or sodium phosphate” value is given as “freely soluble” and the solubility in water (room temperature) is given as “approximately 9.8 mg/mL”.
